Patent US20060257539A1 (priority 2005, published 2006)

Experiments:
[1] = system: C. botulinum Toxin type A (proteolytic) spores; format: cell-based, Clostridium botulinum; details: pH 5.5
[2] = system: all tested C. botulinum strains (spores); format: cell-based, Clostridium botulinum
[3] = system: Lactococcus lactis subsp. cremoris; format: cell-based
[4] = system: Lactococcus lactis subsp. cremoris; format: cell-based; remark: listed apart in the source
[5] = comparative antimicrobial activity in various foodstuff or media (summary table); set-up: key: + means antimicrobial activity, multiple + indicates increased antimicrobial activity; ++: multiple + indicates increased antimicrobial activity; +++: multiple + indicates increased antimicrobial activity; − means no antimicrobial activity
[6] = system: Lactococcus lactis subsp. cremoris; format: cell-based; remark: listed apart in the source
[7] = system: C. botulinum Alaska E (non-proteolytic) vegetative cells; format: cell-based, Clostridium botulinum; details: pH 5.5
[8] = system: all strains of C. botulinum tested (vegetative cells); format: cell-based, Clostridium botulinum
[9] = standard plate well diffusion assay of RTD beverage; format: cell-based
[10] = system: C. botulinum 53B (proteolytic) vegetative cells; format: cell-based, Clostridium botulinum; details: pH 5.5
[11] = system: C. botulinum 33A (proteolytic) vegetative cells; format: cell-based, Clostridium botulinum; details: pH 5.5
[12] = system: C. botulinum E mixed strains vegetative cells; format: cell-based, Clostridium botulinum
[13] = system: C. botulinum Toxin type B (non-proteolytic) spores; format: cell-based, Clostridium botulinum; details: pH 5.5
[14] = system: C. botulinum Beluga E (Non-proteolytic) vegetative cells; format: cell-based, Clostridium botulinum; details: pH 5.5
[15] = system: C. botulinum Toxin type E spores; format: cell-based, Clostridium botulinum; details: pH 5.5
[16] = system: C. botulinum Toxin type B (proteolytic) spores; format: cell-based, Clostridium botulinum; details: pH 5.5
Lactobacillus plantarum = format: cell-based
[17] = system: C. botulinum Alaska E vegetative cells; format: cell-based, Clostridium botulinum
[18] = system: C. botulinum Beluga E vegetative cells; format: cell-based, Clostridium botulinum

Which “Inhibition zone against indicator C. botulinum strain Toxin type A (proteolytic)” value [1] does the source give for ε-poly-L-lysine here?
The value was 0 mm.

What about the “inhibition of growth of C. botulinum from spores (in words)” value [2] of the same substance?
Its value is “unable to inhibit the growth of C. botulinum from spores”.

What about the Apparent nisin activity [3] of the same substance?
Its Apparent nisin activity is 0 IU/g.

What about the “effect on measurable nisin activity in dairy product (in words)” value [3] of the same substance?
Its value is “increased the measurable nisin activity”.

What about the Inhibition zone [4] of the same substance?
The Inhibition zone was 0 mm.

What about the antimicrobial activity ([5]; BHI broth) of the same substance?
Its antimicrobial activity is “−”.

What about the antimicrobial activity ([5]; Beverages) of the same substance?
The antimicrobial activity was “+”.

What about the antimicrobial activity ([5]; Brain heart infusion agar (BHI)) of the same substance?
The antimicrobial activity was “−”.

What about the antimicrobial activity ([5]; Green beans packed in water) of the same substance?
Its antimicrobial activity is “−”.

What about the antimicrobial activity ([5]; Hot dogs) of the same substance?
Its antimicrobial activity is “−”.

What about the antimicrobial activity ([5]; Savory cream) of the same substance?
Its antimicrobial activity is “−”.

And the “effect on apparent nisin activity (in words)” value [6]?
Its value is “significantly increased”.

And the “Inhibition zone against indicator C. botulinum strain Alaska E (non-proteolytic)” value [7]?
Its value is 0 mm.

And the “inhibition of growth of C. botulinum strains from vegetative cells (in words)” value [8]?
The value was “did not show clear or strong inhibition”.

And the “effect on apparent nisin activity in RTD beverage (in words)” value ([9]; very low levels of ε-poly-L-lysine (50 ppm) added to nisin 250 IU/ml)?
The value was “significantly increased”.

And the Inhibition zone ([9]; ε-poly-L-lysine 50 ppm alone, fruit juice-containing RTD beverage)?
The Inhibition zone was 0 mm.

And the “Inhibition zone against indicator C. botulinum strain 53B (proteolytic)” value [10]?
Its value is 0 mm.

What about the “Inhibition zone against indicator C. botulinum strain 33A (proteolytic)” value [11] of the same substance?
Its value is 0 mm.

What about the “Inhibition zone against indicator C. botulinum E mixed strains” value [12] of the same substance?
Its value is 0 mm.

What about the “Inhibition zone against indicator C. botulinum strain Toxin type B (non-proteolytic)” value [13] of the same substance?
The value was 0 mm.

And the “Inhibition zone against indicator C. botulinum strain Beluga E (Non-proteolytic)” value [14]?
Its value is 0 mm.

What about the “Inhibition zone against indicator C. botulinum strain Toxin type E” value [15] of the same substance?
Its value is 0 mm.

What about the “Inhibition zone against indicator C. botulinum strain Toxin type B (proteolytic)” value [16] of the same substance?
Its value is 0 mm.

What about the “inhibition of growth of L. plantarum (in words)” value (Lactobacillus plantarum) of the same substance?
The value was “very limited inhibition on the initial growth of L. plantarum”.

And the “Inhibition zone against indicator C. botulinum strain Alaska E” value [17]?
The value was 0 mm.

What about the “Inhibition zone against indicator C. botulinum strain Beluga E” value [18] of the same substance?
The value was 0 mm.
